# Source: US6608082B1, “Treatment of erectile dysfunction using isoquinoline compound melanocortin receptor ligands” (Lion Bioscience AG, priority 1998, dated 2003)
# Experiments:
# [1] = biological target: T1, MCR-4 (Homo sapiens, UniProt P32245); assay: Melanocortin receptor binding assay, competition with 125I-HP 467, HEK 293 cells expressing hMCR-4; conditions: inhibition of binding of 125I-HP 467, HEK 293 cells expressing MCR-4, TRG 2414 library; for IC50: read-out: MC-4 IC50
# T1 construct: expressed in transfected cells; host or cells: HEK 293
# Procedure, shortened: (§1)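 Intact-cell competition binding, 2.5 hr at 37 °C, in PBS/10% calf serum/1 mM CaCl2; hMCR-4 cells at 4×10^3 per tube, hMCR-1 cells at 2×10^4 per tube. Filtration on BSA/CaCl2-soaked GF/B, cold 50 mM Tris pH 7.4 washes, scintillation count.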
# [2] = biological target: T2, MCR-1 (Homo sapiens, UniProt Q01726); assay: Melanocortin receptor binding assay, competition with 125I-HP 467, HEK 293 cells expressing hMCR-1; conditions: inhibition of binding of 125I-HP 467, HEK 293 cells expressing MCR-1, TRG 2414 library; for IC50: read-out: MC-1 IC50
# T2 construct: expressed in transfected cells; host or cells: HEK 293
# Procedure, shortened: as §1
# T2 sequence (Q01726 whole entry): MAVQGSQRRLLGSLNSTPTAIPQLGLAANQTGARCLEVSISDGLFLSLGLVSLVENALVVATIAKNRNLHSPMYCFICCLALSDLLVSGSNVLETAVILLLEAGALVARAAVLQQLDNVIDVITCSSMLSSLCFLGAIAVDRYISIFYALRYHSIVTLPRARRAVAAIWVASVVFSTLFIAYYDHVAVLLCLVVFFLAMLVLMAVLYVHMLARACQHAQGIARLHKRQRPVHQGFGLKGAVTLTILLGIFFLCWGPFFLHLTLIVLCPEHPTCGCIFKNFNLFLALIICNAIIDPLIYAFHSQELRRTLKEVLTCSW
# T1 sequence (P32245 whole entry): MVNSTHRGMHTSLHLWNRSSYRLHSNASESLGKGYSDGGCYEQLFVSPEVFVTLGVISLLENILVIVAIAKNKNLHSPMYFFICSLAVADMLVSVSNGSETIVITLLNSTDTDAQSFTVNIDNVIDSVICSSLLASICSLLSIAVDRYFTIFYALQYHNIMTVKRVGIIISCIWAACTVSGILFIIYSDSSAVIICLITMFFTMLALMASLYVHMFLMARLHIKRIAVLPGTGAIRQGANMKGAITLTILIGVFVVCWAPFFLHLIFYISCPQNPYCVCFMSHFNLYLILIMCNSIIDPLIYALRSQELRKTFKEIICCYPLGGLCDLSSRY
Structure (SMILES),IC50 [1] [µM],IC50 [2] [µM],MC-4 IC50 [1],MC-1 IC50 [2]
CCOc1ccccc1CNCC1c2ccccc2CN(CCCCC(CN)NCc2ccccc2)C1c1ccc(Oc2ccccc2)cc1 (stereo not drawn) [TRG 2414-127],26.8,2.14,–,–
COc1ccccc1CCNCC1c2ccccc2CN(CCCCC(CN)NCCc2ccccc2)C1c1ccc(Oc2ccccc2)cc1 (stereo not drawn) [TRG 2414-130],13.4,4.63,–,–
COc1ccccc1CCNCC1c2ccccc2CN(CCCCC(CN)NCc2ccccc2)C1c1ccc(Oc2ccccc2)cc1 (stereo not drawn) [TRG 2414-131],14.6,1.65,–,–
COc1ccccc1CCNCC1c2ccccc2CN(CCCCC(CN)NCC(C)c2ccc(CC(C)C)cc2)C1c1ccc(Oc2ccccc2)cc1 (stereo not drawn) [TRG 2414-132],–,27.4,no fit,–
NCC(N)CCCCN1Cc2ccccc2C(CNCCc2cccc(Cl)c2)C1c1ccc(Oc2ccccc2)cc1 (stereo not drawn) [TRG 2414-133],15.9,5.8,–,–
NCC(CCCCN1Cc2ccccc2C(CNCCc2cccc(Cl)c2)C1c1ccc(Oc2ccccc2)cc1)NCCc1ccccc1 (stereo not drawn) [TRG 2414-134],–,40.2,no fit,–
NCC(CCCCN1Cc2ccccc2C(CNCCc2cccc(Cl)c2)C1c1ccc(Oc2ccccc2)cc1)NCc1ccccc1 (stereo not drawn) [TRG 2414-135],46,10.1,–,–
CC(C)Cc1ccc(C(C)CNC(CN)CCCCN2Cc3ccccc3C(CNCCc3cccc(Cl)c3)C2c2ccc(Oc3ccccc3)cc2)cc1 (stereo not drawn) [TRG 2414-136],–,–,no fit,no fit
COc1cccc(CNCC2c3ccccc3CN(CCCCC(N)CN)C2c2ccc(Oc3ccccc3)cc2)c1 (stereo not drawn) [TRG 2414-137],5.26,1.21,–,–
COc1cccc(CNCC2c3ccccc3CN(CCCCC(CN)NCCc3ccccc3)C2c2ccc(Oc3ccccc3)cc2)c1 (stereo not drawn) [TRG 2414-138],16.6,10.6,–,–
COc1cccc(CNCC2c3ccccc3CN(CCCCC(CN)NCc3ccccc3)C2c2ccc(Oc3ccccc3)cc2)c1 (stereo not drawn) [TRG 2414-139],12.6,0.788,–,–
COc1cccc(CNCC2c3ccccc3CN(CCCCC(CN)NCC(C)c3ccc(CC(C)C)cc3)C2c2ccc(Oc3ccccc3)cc2)c1 (stereo not drawn) [TRG 2414-140],–,37,no fit,–
COc1ccc(CNCC2c3ccccc3CN(CCCCC(N)CN)C2c2ccc(Oc3ccccc3)cc2)cc1 (stereo not drawn) [TRG 2414-141],4.21,2.04,–,–
COc1ccc(CNCC2c3ccccc3CN(CCCCC(CN)NCCc3ccccc3)C2c2ccc(Oc3ccccc3)cc2)cc1 (stereo not drawn) [TRG 2414-142],11.3,4.38,–,–
COc1ccc(CNCC2c3ccccc3CN(CCCCC(CN)NCc3ccccc3)C2c2ccc(Oc3ccccc3)cc2)cc1 (stereo not drawn) [TRG 2414-143],14,2.35,–,–
COc1ccc(CNCC2c3ccccc3CN(CCCCC(CN)NCC(C)c3ccc(CC(C)C)cc3)C2c2ccc(Oc3ccccc3)cc2)cc1 (stereo not drawn) [TRG 2414-144],–,–,no fit,no fit
COc1ccc(CCNCC2c3ccccc3CN(CCCCC(N)CN)C2c2ccc(Oc3ccccc3)cc2)cc1 (stereo not drawn) [TRG 2414-145],3.47,2.05,–,–
COc1ccc(CCNCC2c3ccccc3CN(CCCCC(CN)NCc3ccccc3)C2c2ccc(Oc3ccccc3)cc2)cc1 (stereo not drawn) [TRG 2414-147],8.5,1.63,–,–
COc1ccc(CCNCC2c3ccccc3CN(CCCCC(CN)NCC(C)c3ccc(CC(C)C)cc3)C2c2ccc(Oc3ccccc3)cc2)cc1 (stereo not drawn) [TRG 2414-148],–,–,no fit,no fit
NCC(N)CCCCN1Cc2ccccc2C(CNCc2ccccc2)C1c1ccc(Oc2ccccc2)cc1 (stereo not drawn) [TRG 2414-149],2.69,2.86,–,–
NCC(CCCCN1Cc2ccccc2C(CNCc2ccccc2)C1c1ccc(Oc2ccccc2)cc1)NCCc1ccccc1 (stereo not drawn) [TRG 2414-150],16.3,9.42,–,–
NCC(CCCCN1Cc2ccccc2C(CNCc2ccccc2)C1c1ccc(Oc2ccccc2)cc1)NCc1ccccc1 (stereo not drawn) [TRG 2414-151],14.7,1.81,–,–
CC(C)Cc1ccc(C(C)CNC(CN)CCCCN2Cc3ccccc3C(CNCc3ccccc3)C2c2ccc(Oc3ccccc3)cc2)cc1 (stereo not drawn) [TRG 2414-152],–,–,no fit,no fit
NCC(N)CCCCN1Cc2ccccc2C(CNC2CCCCCC2)C1c1ccc(Oc2ccccc2)cc1 (stereo not drawn) [TRG 2414-153],4.09,0.772,–,–
NCC(CCCCN1Cc2ccccc2C(CNC2CCCCCC2)C1c1ccc(Oc2ccccc2)cc1)NCCc1ccccc1 (stereo not drawn) [TRG 2414-154],7.52,4.85,–,–
NCC(CCCCN1Cc2ccccc2C(CNC2CCCCCC2)C1c1ccc(Oc2ccccc2)cc1)NCc1ccccc1 (stereo not drawn) [TRG 2414-155],8.94,2.03,–,–
CC(C)Cc1ccc(C(C)CNC(CN)CCCCN2Cc3ccccc3C(CNC3CCCCCC3)C2c2ccc(Oc3ccccc3)cc2)cc1 (stereo not drawn) [TRG 2414-156],–,18.6,no fit,–
